Experimental data published in patent US10537583B2, “Oral formulation of A-nor-5α androstane compound” (priority 2014, dated 2020).
Where two headings read alike, the source gives them in different places.

Assays:
[1] = 37° C., 72 hours, n = 3
Protocol: Phosphate buffer solution (PBS) with different pH was prepared (pH is 1.0, 5.0, 5.5, 5.8, 6.0, 6.8 and 7.4). The equilibrium solubility of A-nor-5α androstane compounds (Ia) in PBS with different pH was determined by using Equilibrium Method. Method: 5 mL of each medium was removed into test tubes with plug and about 30 mg of crude drugs comprising A-nor-5α androstane compounds were added into the tubes respectively. The tubes were subjected to a thermostatic oscillator (37° C.) and vibrated at 100 rpm. After 72 hours, the sample was taken and subjected to HPLC analysis.

[2] = n-octanol, 37° C., n = 3
Protocol: PBS with different pH was prepared, and oil-water partition coefficient of A-nor-5α androstane compound (Ia) in a buffer solution with different pH (e.g., 2.0, 4.5, 5.0, 6.0, 6.8, 7.4, respectively) was determined by shake-flask method. Water-saturated n-octanol was used to prepare a stock solution of A-nor-5α androstane compound, concentration of which was about 10 mg/mL. A variety of n-octanol-saturated PBS and aqueous solution (5 ml) was taken and added into glass tubes with plug. 0.5 mL of stock solution of A-nor-5α-androstane compound was added. The tubes were sealed completely and subjected to a 37° C. thermostatic oscillator, and sampled after shaking for 24 h. Samples from water phase and oil phase were taken for analysis by HPLC, respectively. The drug concentrations in water and oil phase were calculated. According to […], oil-water partition coefficient (Log P) was calculated and the results are shown in Table 2.

Caco-2 cells [3] = tested on: Caco-2 cells
Protocol: The qualified Transwell plate was taken. The nutrient solution comprising drugs was prepared by using Hank's balanced salt solution (HBSS) to study the bidirectional transfer of A-nor-5α-androstane compounds (Ia) with different concentrations in Caco-2 cells.

Caco-2 cells [4] = tested on: Caco-2 cells; remark: listed apart in the source
Protocol: Caco-2 cells were spotted on a six-well plate. When the cells were grown to an inoculation density of 8×10^4 cells/mL, the cells were cultured with the drug-containing medium. The relationship between cells uptake and uptake time, the concentration of A-nor-5α-androstane compound (Ia) were examined. After the experiment was completed, the cells were scraped off and the cells were broken by multiple freezing-thawing. The samples of the cells were precipitated by acetonitrile and then subjected to HPLC analysis.

[5] = for Ka (absorption rate constant) / P (cumulative absorption percentage) / Q (absorption dose in 2 hours): n = 3
Protocol: A suitable concentration of intestinal circulating liquid comprising A-nor-5α-androstane compounds (Ia) was prepared by using PBS (pH 5.5 and pH 6.8) containing phenol red. Rats were fasting over 12 hours before the experiment and then subjected to intraperitoneal injection with urethane solution (dose 4 mL/kg) at a concentration of 0.3 g/ml for anesthesia. The rats were fixed and a 3 cm incision was made along the medioventral line. The duodenum (start from 1 cm below the pyloru, intestinal circulating fluid comprising A-nor-5α androstane compound, pH 5.5), the jejunum (start from […], intestinal circulating fluid comprising A-nor-5α androstane compound, pH 6.8), and the ileum (start from 30 cm below the pylorus, intestinal circulating fluid comprising A-nor-5α androstane compound, pH 6.8) were incubated and ligated. Preheated saline (37° C.) was used to clean the intestinal contents, and then the air (37° C.) was ventilated into the intestine to remove the saline. The wound was covered with dressing, and infrared lamp was used to keep warm (37° C.). The reflux device was connected and after 50 ml of drug-containing circulating fluid at a constant temperature of 37° C. was balanced at 3 mL/min for 5 min, timing was started when the flow rate was adjusted to 1 mL/ml. Samples (1 mL for each) were taken at 0, 15, 30, 45, 60, 90, and 120 min, while adding blank circulating fluid (1 mL). The sample was subjected to HPLC analysis after appropriate treatment. The volume of circulating fluid was corrected according to the concentration of phenol red. Then the remained amounts of drug X were calculated by the concentration of A-nor-5α androstane compounds and the volume of circulating fluid. Line slope is the absorption rate constant (Ka) of a drug. The cumulative absorption percentage (P) of the drug is obtained by comparing the absorption dose (Q) of a drug in 2 hours to the initial dose (X0) before absorption.

[6] = Description: It mainly relies on passive diffusion mechanism for transport, uptake and absorb in the body and the uptake amounts are dependent on the time and dose. A-nor-5α-androstane compound can be administered by oral pathway. […] Therefore, an oral formulation, such as ordinary oral tablet, oral capsule and other sustained-release preparation, is designed according to the present invention.
[7] = Beagle dogs, 1.0 mg/kg by gastric gavage
[8] = rat duodenum, circulating fluid pH 5.5
[9] = rat ileum, circulating fluid pH 6.8
[10] = rat jejunum, circulating fluid pH 6.8
[11] = rat jejunum, concentration 25.0 μg/mL
[12] = rat jejunum, concentration 50.0 μg/mL
[13] = rat jejunum, concentration 100.0 μg/mL

`C#C[C@@]1(O)C[C@@H]2CC[C@@H]3[C@H](CC[C@@]4(C)[C@H]3CC[C@@]4(O)C#C)[C@@]2(C)C1` [Ia, 2α, 17α-diethynyl-A-nor-5α-androstane-2β, 17β-dihydroxy compound] showed an equilibrium solubility ([1]; pH 1.0 hydrochloric acid) of 7.85 ± 0.57 µg/mL, an equilibrium solubility ([1]; pH 5.0 PBS) of 14.73 ± 0.80 µg/mL and an equilibrium solubility ([1]; pH 5.5 PBS) of 45.73 ± 0.23 µg/mL. It also gave an equilibrium solubility ([1]; pH 5.8 PBS) of 70.52 ± 1.28 µg/mL, an equilibrium solubility ([1]; pH 6.0 PBS) of 144.54 ± 0.77 µg/mL and an equilibrium solubility ([1]; pH 6.8 PBS) of 1388.16 ± 90.95 µg/mL. The equilibrium solubility ([1]; pH 7.4 PBS) was 4507.97 ± 487.04 µg/mL, the LogP ([2]; buffer pH 2.0) was “∞” and the LogP ([2]; buffer pH 4.5) was 4.19. The LogP ([2]; buffer pH 5.0) was 3.80, the LogP ([2]; buffer pH 6.0) was 2.52 and the LogP ([2]; buffer pH 6.8) was 0.98. The LogP ([2]; buffer pH 7.4) was 0.11, the “apparent permeability coefficient (Papp)” value (Caco-2 cells [3]; all Papps under various conditions) was over 1 ×10⁻⁶ cm/s and the “ER (efflux rate)” value (Caco-2 cells [3]; concentration 0.5 mg/mL) was 1.94. For the same molecule, the “Papp A-B” value (Caco-2 cells [3]; concentration 0.5 mg/mL) was 2.59 ± 0.17 ×10^−6 cm/s, the “Papp B-A” value (Caco-2 cells [3]; concentration 0.5 mg/mL) was 5.02 ± 0.50 ×10^−6 cm/s and the “ER (efflux rate)” value (Caco-2 cells [3]; concentration 0.75 mg/mL) was 1.62. For the same molecule, the “Papp A-B” value (Caco-2 cells [3]; concentration 0.75 mg/mL) was 4.00 ± 0.15 ×10^−6 cm/s, the “Papp B-A” value (Caco-2 cells [3]; concentration 0.75 mg/mL) was 6.46 ± 0.71 ×10^−6 cm/s and the “ER (efflux rate)” value (Caco-2 cells [3]; concentration 1.0 mg/mL) was 1.82. For the same molecule, the “Papp A-B” value (Caco-2 cells [3]; concentration 1.0 mg/mL) was 4.98 ± 0.16 ×10^−6 cm/s, the “Papp B-A” value (Caco-2 cells [3]; concentration 1.0 mg/mL) was 9.07 ± 0.35 ×10^−6 cm/s and the “relationship of uptake amounts with uptake time” value (Caco-2 cells [4]; Y=0.204x+6.107, r=0.9952) was “linear relationship with the uptake time”. For the same molecule, the “relationship of uptake amounts with concentration” value (Caco-2 cells [4]; y=40.59x−10.47, r=0.9994) was “linear relationship with the concentration”, the “Ka (absorption rate constant)” value [5, 8] was 4.27 ± 1.53 ×10^−3 min and the “P (cumulative absorption percentage)” value [5, 8] was 45.48 ± 9.33%. For the same molecule, the “Q (absorption dose in 2 hours)” value [5, 8] was 324.42 ± 65.21 μg/2 h, the “Ka (absorption rate constant)” value [5, 9] was 7.57 ± 2.56 ×10^−3 min and the “P (cumulative absorption percentage)” value [5, 9] was 65.23 ± 11.80%. The “Q (absorption dose in 2 hours)” value [5, 9] was 1603.03 ± 289.37 μg/2 h, the “Ka (absorption rate constant)” value [5, 10] was 9.53 ± 4.22 ×10^−3 min and the “P (cumulative absorption percentage)” value [5, 10] was 71.68 ± 13.48%. For the same molecule, the “Q (absorption dose in 2 hours)” value [5, 10] was 1809.26 ± 369.52 μg/2 h, the “Ka (absorption rate constant)” value [5, 11] was 18.87 ± 2.94 ×10^−3 min and the “P (cumulative absorption percentage)” value [5, 11] was 90.27 ± 3.28%. For the same molecule, the “Q (absorption dose in 2 hours)” value [5, 11] was 1063.39 ± 75.81 μg/2 h, the “Ka (absorption rate constant)” value [5, 12] was 9.53 ± 4.22 ×10^−3 min and the “P (cumulative absorption percentage)” value [5, 12] was 71.68 ± 13.48%. For the same molecule, the “Q (absorption dose in 2 hours)” value [5, 12] was 1809.26 ± 369.52 μg/2 h, the “Ka (absorption rate constant)” value [5, 13] was 5.50 ± 0.36 ×10^−3 min and the “P (cumulative absorption percentage)” value [5, 13] was 53.25 ± 2.77%. For the same molecule, the “Q (absorption dose in 2 hours)” value [5, 13] was 2636.52 ± 137.86 μg/2 h, the “relationship between absorption and concentration” value ([5]; rat jejunum, y=20.34x+649.7, r=0.9869) was “good linear relationship” and the absorption percentages ([5]; rat, both jejunum and ileum) was over 50%. For the same molecule, the water dissolution rate [6] was 6.5 µg/mL, the absolute bioavailability ([7]; based on AUC0-t of crude drug) was 56.8% and the absolute bioavailability ([7]; based on AUC0-t of total main metabolites in vivo) was 93.0%.
